Laboratory results from paper PMC9203742 (Nature Communications, 2022).
Several values for one entry are separate records, joined by “and”; a condition that tells them apart may be missing. Equal values may be shown once.

Columns and labels:
[1] = test system: PC12 cells; assay: NGF-induced neurite outgrowth in differentiated PC12 cells; type: cell-based; design: neurite outgrowth, individual values #1-#20 (Fig.4b): unit not given here; conditions: [Pd(bpy)] 100 µM; differentiated PC12 cells
Procedure: After incubation for 3 days, PC12 cells bearing neurites were randomly selected, and the length of the longest neurite in each cell was measured using ImageJ package Fiji.

[2] = test system: HEK293 cells, vector control; assay: Fura-2 Ca2+ imaging in HEK293 cells transfected with control vector (Vec); type: cell-based; conditions: single-cell values #1-#20
[3] = test system: mGlu1 construct not given; assay: Fura-2 Ca2+ imaging in HEK293 cells, source data Suppl Fig1, left group (c0-c8); construct not given; type: cell-based, rat; conditions: single-cell values, cells #15-#20; left group of third block
Text: (§1) Supplement 41467_2022_30828_MOESM6_ESM.zip/Ojima et al_source data_Suppl Fig.xlsx, sheet "Suppl Fig1" | column: Glu; NiCl2; CuCl2; ZnCl2; CdCl2; Na2PdCl2; Pd(bpy)

[4] = biological target: T1, mGlu1 A59H/A265H mutant (Rattus norvegicus, UniProt P23385, A265H/A59H); assay: Fura-2 Ca2+ imaging in HEK293 cells expressing mGlu1 A59H/A265H; type: cell-based; conditions: single-cell values
T1 construct: expressed in transfected cells; host or cells: HEK293
T1 sequence (P23385 19-1199 A59H/A265H): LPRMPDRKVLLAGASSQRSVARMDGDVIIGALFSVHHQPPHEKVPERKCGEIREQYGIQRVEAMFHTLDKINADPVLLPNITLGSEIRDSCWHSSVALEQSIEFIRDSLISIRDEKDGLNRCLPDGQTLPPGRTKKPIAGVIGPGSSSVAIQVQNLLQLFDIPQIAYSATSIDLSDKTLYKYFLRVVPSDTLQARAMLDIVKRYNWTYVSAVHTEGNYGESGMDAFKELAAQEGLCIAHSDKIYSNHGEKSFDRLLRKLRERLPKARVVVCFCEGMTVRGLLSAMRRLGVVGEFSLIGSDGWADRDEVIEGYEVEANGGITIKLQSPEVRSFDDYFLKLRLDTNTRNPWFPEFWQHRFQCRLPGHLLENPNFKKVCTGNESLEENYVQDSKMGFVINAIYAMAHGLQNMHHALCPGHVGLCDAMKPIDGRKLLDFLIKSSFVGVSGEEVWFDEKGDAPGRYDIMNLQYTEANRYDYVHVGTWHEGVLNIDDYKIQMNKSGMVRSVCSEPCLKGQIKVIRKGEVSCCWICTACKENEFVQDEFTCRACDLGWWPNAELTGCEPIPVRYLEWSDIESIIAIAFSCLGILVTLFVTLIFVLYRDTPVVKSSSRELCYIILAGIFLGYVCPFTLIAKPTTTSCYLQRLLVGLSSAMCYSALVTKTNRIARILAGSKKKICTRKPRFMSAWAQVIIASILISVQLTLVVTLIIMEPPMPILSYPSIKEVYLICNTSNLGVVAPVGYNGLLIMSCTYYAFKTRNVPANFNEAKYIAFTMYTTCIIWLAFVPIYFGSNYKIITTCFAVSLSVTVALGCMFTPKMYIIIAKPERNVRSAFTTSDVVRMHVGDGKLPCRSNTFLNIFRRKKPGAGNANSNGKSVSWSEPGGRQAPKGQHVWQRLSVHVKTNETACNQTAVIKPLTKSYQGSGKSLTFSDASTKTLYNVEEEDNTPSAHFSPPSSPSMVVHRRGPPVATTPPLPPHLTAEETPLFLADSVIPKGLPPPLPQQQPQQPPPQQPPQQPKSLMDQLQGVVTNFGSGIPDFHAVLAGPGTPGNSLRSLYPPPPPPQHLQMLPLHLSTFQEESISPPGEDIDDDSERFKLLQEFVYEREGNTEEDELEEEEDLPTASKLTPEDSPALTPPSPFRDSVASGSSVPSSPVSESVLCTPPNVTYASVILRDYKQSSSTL

[5] = test system: mGlu1 construct not given; assay: Fura-2 Ca2+ imaging in HEK293 cells, source data Suppl Fig1, middle group (c9-c17); construct not given; type: cell-based, rat; conditions: single-cell values, cells #15-#20; middle group of third block
Text: as §1

[6] = biological target: T2, mGlu1 A59H/G266H mutant (Rattus norvegicus, UniProt P23385, A59H/G266H); assay: Fura-2 Ca2+ imaging in HEK293 cells expressing mGlu1 A59H/G266H; type: cell-based; conditions: single-cell values
T2 construct: expressed in transfected cells; host or cells: HEK293
T2 sequence (P23385 19-1199 A59H/G266H): as the sequence (P23385 19-1199 A59H/A265H) above, with H247A, G248H counted along it

[7] = test system: mGlu1 construct not given; assay: Fura-2 Ca2+ imaging in HEK293 cells, source data Suppl Fig1, right group (c18-c26); construct not given; type: cell-based, rat; conditions: single-cell values, cells #15-#20; right group of third block
Text: as §1

[8] = test system: PC12 cells; assay: Cell proliferation assay of undifferentiated PC12 cells; conditions: for cell proliferation, Ave (Fig.4c): average of #1-#3
[9] = test system: primary cortical neurons; assay: Fura-2 Ca2+ imaging (abnormal Ca2+ response) in cultured cortical neurons

O=[N+]([O-])[O-].O=[N+]([O-])[O-].[Pd+2].c1ccc(-c2ccccn2)nc1 [Pd(bpy), Pd(bpy)(NO3)2]
neurite outgrowth, individual values #1-#20 (Fig.4b) [1]: 136.698 and 130.77 and 122.681 and 121.338 and 121.125 and 116.924 and 109.267 and 109.255 and 105.042 and 102.225 and 101.456 and 94.5391 and 93.196 and 186.64 and 184.25 and 163.439 and 159.066 and 147.882 and 142.225 and 138.024 | Ca2+ response of individual cells (source data Suppl Fig1), Vec [2]: -0.004731 and 0.3238 and -0.02602 and 0.02754 and -0.0031 and 0.006285 and -0.02257 and 0.004254 and 0.003354 and -0.004338 and -0.001023 and 0.0058 and -0.01141 and 0.05108 and 0.0005846 and 0.297 and 0.004723 and 0.01628 and 0.03037 | Ca2+ response of individual cells (source data, sheet Suppl Fig1) [3]: 0.505 and 0.8787 and 1.066 and 0.2405 and 0.9566 and 0.7627 | Ca2+ response of individual cells (source data Suppl Fig1), A59H/A265H [4]: -0.002885 and -0.009254 and 0.08719 and 0.008869 and -0.009738 and 0.003808 and 0.004285 and 0.02012 and -0.02372 and -0.01536 and -0.009285 and -0.02246 and 0.01085 and 0.1127 | Ca2+ response of individual cells (source data, sheet Suppl Fig1) [5]: 0.04373 and -0.04935 and -0.001077 and -0.04196 and -0.007292 and 0.01256 | Ca2+ response of individual cells (source data Suppl Fig1), A59H/G266H [6]: 0.2879 and 0.01529 and 0.1021 and -0.0047 and 0.3807 and 0.03304 and 0.0004923 and 0.02376 and -0.0301 and -0.02225 and 0.0004846 and -0.005677 and 0.7275 and 0.6736 | Ca2+ response of individual cells (source data, sheet Suppl Fig1) [7]: 0.001923 and 0.0116 and 0.02873 and 0.01569 and 0.04602 and 0.003608 | Cell growth ([8]; 30 μM): clearly suppressed | cell proliferation, single experiments #1-#3 (Fig.4c) ([8]; Pd complex 1 µM): 1.5318 and 0.8604 and 0.8836 | cell proliferation, Ave (Fig.4c) ([8]; Pd complex 1 µM): 1.092 | cell proliferation, single experiments #1-#3 (Fig.4c) ([8]; Pd complex 3 µM): 1.071 and 0.9613 and 0.8889 | cell proliferation, Ave (Fig.4c) ([8]; Pd complex 3 µM): 0.9739 | cell proliferation, single experiments #1-#3 (Fig.4c) ([8]; Pd complex 10 µM): 1.234 and 0.8888 and 0.7605 | cell proliferation, Ave (Fig.4c) ([8]; Pd complex 10 µM): 0.961 | cell proliferation, single experiments #1-#3 (Fig.4c) ([8]; Pd complex 30 µM): 0.9447 and 0.7842 and 0.619 | cell proliferation, Ave (Fig.4c) ([8]; Pd complex 30 µM): 0.7826 | cell proliferation, Ave (Fig.4c) ([8]; Pd complex 100 µM): 0.07957 | abnormal Ca2+ response, ave (Fig.4d) ([9]; 1 µM Pd complex): 0.03652 | abnormal Ca2+ response, ave (Fig.4d) ([9]; 3 µM Pd complex): -0.0001233 | [Ca2+]i elevation (abnormal Ca2+ response) ([9]; 10 μM): gradual [Ca^2+]i elevation was observed | abnormal Ca2+ response, ave (Fig.4d) ([9]; 10 µM Pd complex): 0.1988 | [Ca2+]i elevation (abnormal Ca2+ response) ([9]; 30 μM): more prominent | abnormal Ca2+ response, ave (Fig.4d) ([9]; 30 µM Pd complex): 2.468 | abnormal Ca2+ response, ave (Fig.4d) ([9]; 100 µM Pd complex): 3.162 | abnormal Ca2+ response, ave (Fig.4d) ([9]; 300 µM Pd complex): 3.458
